For experiment [1], the target named is WRN (BV08), human Werner helicase (Uniprot Q14191, amino acids 517-1235 with L1074F point mutation) (Homo sapiens (Human), UniProt Q14191, L1074F). Description: WRN (BV08) ADP-Glo assay. As to conditions: class symbols A-E, read-out: ADP-Glo_hWRN_IC50. It is filed as biochemical.
The test system of experiment [2] is p21 induction in HCT116 cells. Description: p21 induction in HCT116 cells. As to conditions: HCT116 cells, 24 h compound incubation, read-out: P21_EC50. It is filed as cell-based. The method, boiled down:
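EC50 from non-linear curve fit of p21 immunofluorescence (800 nm), with GAPDH (700 nm) read alongside. DMSO and a reference WRN inhibitor served as low and high controls. Cells (2,000/well) got 11 compound concentrations in duplicate for 24 h at 37 °C.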

Read-outs that look alike come from different tables or passages of the source.

Sequence of WRN (BV08), human Werner helicase (Uniprot Q14191, amino acids 517-1235 with L1074F point mutation) (Q14191 other isoform, or with tags, fused parts or gaps L1074F (already in the parent)): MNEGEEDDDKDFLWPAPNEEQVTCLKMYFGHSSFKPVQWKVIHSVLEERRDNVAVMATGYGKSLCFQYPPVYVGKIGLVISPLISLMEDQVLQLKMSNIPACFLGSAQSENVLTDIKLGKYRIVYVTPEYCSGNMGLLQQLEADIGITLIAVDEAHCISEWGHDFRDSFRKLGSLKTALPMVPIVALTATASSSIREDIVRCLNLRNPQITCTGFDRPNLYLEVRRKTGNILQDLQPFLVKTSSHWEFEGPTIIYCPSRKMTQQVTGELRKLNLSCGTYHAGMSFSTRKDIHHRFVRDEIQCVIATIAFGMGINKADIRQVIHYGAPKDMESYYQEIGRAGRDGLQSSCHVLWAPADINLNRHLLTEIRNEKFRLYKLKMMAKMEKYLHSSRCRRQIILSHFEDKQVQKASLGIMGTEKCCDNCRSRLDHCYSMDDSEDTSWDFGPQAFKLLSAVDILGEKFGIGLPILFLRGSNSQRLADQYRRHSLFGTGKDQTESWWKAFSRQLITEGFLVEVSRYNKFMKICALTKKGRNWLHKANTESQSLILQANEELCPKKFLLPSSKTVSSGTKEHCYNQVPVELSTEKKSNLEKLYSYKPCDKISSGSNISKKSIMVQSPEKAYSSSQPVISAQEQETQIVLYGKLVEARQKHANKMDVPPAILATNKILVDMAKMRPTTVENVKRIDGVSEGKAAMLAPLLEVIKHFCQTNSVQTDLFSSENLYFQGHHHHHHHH

As for `CCc1c(N2CCN(C(=O)c3ncnc(C)c3O)CC2)c(=O)c2nc(N3CCCC34CC4)cnc2n1CC(=O)Nc1ccc(C(F)(F)F)cc1Cl` [I-224, 2-(2-{4-azaspiro[2.4]heptan-4-yl}-6-ethyl-7-[4-(5-hydroxy-6-methylpyrimidine-4-carbonyl)piperazin-1-yl]-8-oxo-5H,8H-pyrido[2,3-b]pyrazin-5-yl)-N-[2-chloro-4-(trifluoromethyl)phenyl]acetamide], in experiment [1], the IC50 lay within 5 to 50 nM. In experiment [2] (Homo sapiens, HCT-116, 24 h), the EC50 lay within 2000 to 5000 nM.
As for `CCc1c(N2CCN(C(=O)c3c(OC)ncc(C)c3O)C[C@@H]2C)c(=O)c2nc(C3CC3)cnc2n1CC(=O)Nc1ccc(C(F)(F)F)cc1Cl` [I-225, N-[2-chloro-4-(trifluoromethyl)phenyl]-2-{2-cyclopropyl-6-ethyl-7-[(2S)-4-(4-hydroxy-2-methoxy-5-methylpyridine-3-carbonyl)-2-methylpiperazin-1-yl]-8-oxo-5H,8H-pyrido[2,3-b]pyrazin-5-yl}acetamide], the IC50 in experiment [1] lay in the range of 5 to 50 nM. Besides, in experiment [2] (Homo sapiens, HCT-116, 24 h), the EC50 was less than 500 nM.
As to `[2H]C([2H])([2H])Nc1cnc2c(n1)c(=O)c(N1CCN(C(=O)c3ncnc(C)c3O)[C@H]3CC[C@@H]31)c(CC)n2CC(=O)Nc1ccc(C(F)(F)F)cc1Cl` [I-226, N-[2-chloro-4-(trifluoromethyl)phenyl]-2-{6-ethyl-7-[(1S,6S)-5-(5-hydroxy-6-methylpyrimidine-4-carbonyl)-2,5-diazabicyclo[4.2.0]octan-2-yl]-2-[(methyl-d3)amino]-8-oxo-5H,8H-pyrido[2,3-b]pyrazin-5-yl}acetamide], the IC50 in experiment [1] was no more than 5 nM. For the same compound, the EC50 in experiment [2] (Homo sapiens, HCT-116, 24 h) was less than 500 nM.
Regarding `CCc1c(N2CCN(C(=O)c3ncnc(C)c3O)[C@H]3CC[C@@H]32)c(=O)c2nc(NC)cnc2n1CC(=O)Nc1ccc(C(F)(F)F)cc1Cl` [I-227, N-[2-chloro-4-(trifluoromethyl)phenyl]-2-{6-ethyl-7-[(1S,6S)-5-(5-hydroxy-6-methylpyrimidine-4-carbonyl)-2,5-diazabicyclo[4.2.0]octan-2-yl]-2-(methylamino)-8-oxo-5H,8H-pyrido[2,3-b]pyrazin-5-yl}acetamide], the IC50 in experiment [1] is no more than 5 nM. Besides, the EC50 in experiment [2] is less than 500 nM.
Consider `CCc1c(N2CCN(C(=O)c3c(OC)ncc(C)c3O)C[C@@H]2C)c(=O)c2nc(N(C)C)cnc2n1CC(=O)Nc1ccc(C(F)(F)F)cc1Cl` [I-228, N-[2-chloro-4-(trifluoromethyl)phenyl]-2-[2-(dimethylamino)-6-ethyl-7-[(2S)-4-(4-hydroxy-2-methoxy-5-methylpyridine-3-carbonyl)-2-methylpiperazin-1-yl]-8-oxo-5H,8H-pyrido[2,3-b]pyrazin-5-yl]acetamide], for which, in experiment [1], the IC50 was 5 to 50 nM. In addition, the EC50 in experiment [2] (Homo sapiens, HCT-116, 24 h) is less than 500 nM.
For `CCc1c(C23CCN(C(=O)c4ncnc(C)c4O)CC2C3)c(=O)c2nc(N(C)C)cnc2n1CC(=O)Nc1ccc(C(F)(F)F)cc1Cl` (stereo not shown) [I-229, N-[2-chloro-4-(trifluoromethyl)phenyl]-2-[2-(dimethylamino)-6-ethyl-7-[3-(5-hydroxy-6-methylpyrimidine-4-carbonyl)-3-azabicyclo[4.1.0]heptan-6-yl]-8-oxo-5H,8H-pyrido[2,3-b]pyrazin-5-yl]acetamide] the same measures were 5 to 50 nM and 500 to 2000 nM.
Turning to `CCc1c(N2CCN(C(=O)c3ncnc(C)c3O)[C@H]3CC[C@@H]32)c(=O)c2nc(N(C)C)cnc2n1CC(=O)Nc1cc(F)c(C(F)(F)F)cc1C` [I-236, 2-[2-(dimethylamino)-6-ethyl-7-[(1S,6S)-5-(5-hydroxy-6-methylpyrimidine-4-carbonyl)-2,5-diazabicyclo[4.2.0]octan-2-yl]-8-oxo-5H,8H-pyrido[2,3-b]pyrazin-5-yl]-N-[5-fluoro-2-methyl-4-(trifluoromethyl)phenyl]acetamide], in experiment [1], the IC50 lay in the range of 5 to 50 nM. The EC50 in experiment [2] (Homo sapiens, HCT-116, 24 h) is less than 500 nM.
Turning to `CCc1c(N2CCN(C(=O)c3c(OC)ncc(C)c3O)CC2)c(=O)c2nc(C3CC3)cnc2n1CC(=O)Nc1ccc(C(F)(F)F)cc1Cl` [I-239, N-[2-chloro-4-(trifluoromethyl)phenyl]-2-{2-cyclopropyl-6-ethyl-7-[4-(4-hydroxy-2-methoxy-5-methylpyridine-3-carbonyl)piperazin-1-yl]-8-oxo-5H,8H-pyrido[2,3-b]pyrazin-5-yl} acetamide], the IC50 in experiment [1] is 5 to 50 nM. Besides, in experiment [2] (Homo sapiens, HCT-116, 24 h), the EC50 was less than 500 nM.
On to `CCc1c(N2CCN(C(=O)c3ncnc(C)c3O)[C@H]3CC[C@@H]32)c(=O)c2nc(N(C)C)cnc2n1CC(=O)Nc1ccc(C(F)F)cc1Cl` [I-240, N-[2-chloro-4-(difluoromethyl)phenyl]-2-[2-(dimethylamino)-6-ethyl-7-[(1S,6S)-5-(5-hydroxy-6-methylpyrimidine-4-carbonyl)-2,5-diazabicyclo[4.2.0]octan-2-yl]-8-oxo-5H,8H-pyrido[2,3-b]pyrazin-5-yl]acetamide], for which the IC50 in experiment [1] fell in the range of 5 to 50 nM. Moreover, in experiment [2] (Homo sapiens, HCT-116, 24 h), the EC50 was less than 500 nM.
The corresponding values for `CCc1c(N2CCN(C(=O)c3ncnc(C)c3O)[C@H]3CC[C@@H]32)c(=O)c2nc(-c3ccnn3C)cnc2n1CC(=O)Nc1ccc(C(F)(F)F)cc1Cl` [I-241, N-[2-chloro-4-(trifluoromethyl)phenyl]-2-{6-ethyl-7-[(1S,6S)-5-(5-hydroxy-6-methylpyrimidine-4-carbonyl)-2,5-diazabicyclo[4.2.0]octan-2-yl]-2-(1-methyl-1H-pyrazol-5-yl)-8-oxo-5H,8H-pyrido[2,3-b]pyrazin-5-yl}acetamide] are no more than 5 nM and less than 500 nM.
For `CCc1c(N2CCN(C(=O)c3ncnc(C)c3O)[C@H]3CC[C@@H]32)c(=O)c2nc(N3CC(OC)C3)cnc2n1CC(=O)Nc1ccc(C(F)(F)F)cc1Cl` [I-242, N-[2-chloro-4-(trifluoromethyl)phenyl]-2-{6-ethyl-7-[(1S,6S)-5-(5-hydroxy-6-methylpyrimidine-4-carbonyl)-2,5-diazabicyclo[4.2.0]octan-2-yl]-2-(3-methoxyazetidin-1-yl)-8-oxo-5H,8H-pyrido[2,3-b]pyrazin-5-yl}acetamide] the same measures were 5 to 50 nM and less than 500 nM.
In the case of `CCc1c(N2CCN(C(=O)c3c(OC)ncc(C)c3O)[C@H]3CCC[C@@H]32)c(=O)c2nc(N(C)C)cnc2n1CC(=O)Nc1ccc(C(F)(F)F)cc1Cl` [I-243, 2-{7-[(4aS,7aS)-4-(4-hydroxy-2-methoxy-5-methylpyridine-3-carbonyl)-octahydro-1H-cyclopenta[b]pyrazin-1-yl]-2-(dimethylamino)-6-ethyl-8-oxo-5H,8H-pyrido[2,3-b]pyrazin-5-yl}-N-[2-chloro-4-(trifluoromethyl)phenyl]acetamide], the IC50 in experiment [1] lay within 5 to 50 nM. The EC50 in experiment [2] (Homo sapiens, HCT-116, 24 h) is less than 500 nM.
Consider `CCc1c(N2CCN(C(=O)c3ncnc(C)c3O)C[C@@H]2CO)c(=O)c2nc(N(C)C)cnc2n1CC(=O)Nc1ccc(C(F)(F)F)cc1Cl` [I-244, N-[2-chloro-4-(trifluoromethyl)phenyl]-2-[2-(dimethylamino)-6-ethyl-7-[(2R)-4-(5-hydroxy-6-methylpyrimidine-4-carbonyl)-2-(hydroxymethyl)piperazin-1-yl]-8-oxo-5H,8H-pyrido[2,3-b]pyrazin-5-yl]acetamide], for which, in experiment [1], the IC50 is 5 to 50 nM. In addition, the EC50 in experiment [2] (Homo sapiens, HCT-116, 24 h) was greater than 5000 nM.
The corresponding values for `CCc1c(N2CCN(C(=O)c3ncnc(C)c3O)[C@H]3CC[C@@H]32)c(=O)c2nc(N3CC(F)(F)C3)cnc2n1CC(=O)Nc1ccc(C(F)(F)F)cc1Cl` [I-245, N-[2-chloro-4-(trifluoromethyl)phenyl]-2-[2-(3,3-difluoroazetidin-1-yl)-6-ethyl-7-[(1S,6S)-5-(5-hydroxy-6-methylpyrimidine-4-carbonyl)-2,5-diazabicyclo[4.2.0]octan-2-yl]-8-oxo-5H,8H-pyrido[2,3-b]pyrazin-5-yl]acetamide] are 5 to 50 nM and less than 500 nM.
As for `CCc1c(N2CCN(C(=O)c3ncnc(C)c3O)[C@H]3CC[C@@H]32)c(=O)c2nc(N3CC(C)(O)C3)cnc2n1CC(=O)Nc1ccc(C(F)(F)F)cc1Cl` [I-246, N-[2-chloro-4-(trifluoromethyl)phenyl]-2-[6-ethyl-2-(3-hydroxy-3-methylazetidin-1-yl)-7-[(1S,6S)-5-(5-hydroxy-6-methylpyrimidine-4-carbonyl)-2,5-diazabicyclo[4.2.0]octan-2-yl]-8-oxo-5H,8H-pyrido[2,3-b]pyrazin-5-yl]acetamide], the IC50 in experiment [1] lay in the range of 5 to 50 nM. Besides, the EC50 in experiment [2] (Homo sapiens, HCT-116, 24 h) was in the range of 500 to 2000 nM.
Regarding `CCc1c(N2CCN(C(=O)c3ncnc(C)c3O)CC2(C)C)c(=O)c2nc(N(C)C)cnc2n1CC(=O)Nc1ccc(C(F)(F)F)cc1Cl` [I-249, N-[2-chloro-4-(trifluoromethyl)phenyl]-2-[2-(dimethylamino)-6-ethyl-7-[4-(5-hydroxy-6-methylpyrimidine-4-carbonyl)-2,2-dimethylpiperazin-1-yl]-8-oxo-5H,8H-pyrido[2,3-b]pyrazin-5-yl]acetamide], the IC50 in experiment [1] was 5 to 50 nM. Further, in experiment [2] (Homo sapiens, HCT-116, 24 h), the EC50 is less than 500 nM.
In the case of `CCc1c(N2CCN(C(=O)c3ncnc(C)c3O)[C@H]3CC[C@@H]32)c(=O)c2nc(N3CCOCC3)cnc2n1CC(=O)Nc1ccc(C(F)(F)F)cc1Cl` [I-250, N-[2-chloro-4-(trifluoromethyl)phenyl]-2-{6-ethyl-7-[(1S,6S)-5-(5-hydroxy-6-methylpyrimidine-4-carbonyl)-2,5-diazabicyclo[4.2.0]octan-2-yl]-2-(morpholin-4-yl)-8-oxo-5H,8H-pyrido[2,3-b]pyrazin-5-yl}acetamide], the IC50 in experiment [1] lay in the range of 5 to 50 nM. Also, in experiment [2] (Homo sapiens, HCT-116, 24 h), the EC50 is less than 500 nM.

The values are drawn from patent publication US20250034136A1 (Nimbus Wadjet, Inc., priority 2023, published 2025).
